Test results from article PMC6073423, “Dose-Dependent Increase in Unconjugated Cinnamic Acid Concentration in Plasma Following Acute Consumption of Polyphenol Rich Curry in the Polyspice Study” (Nutrients, 2018).
Read-outs that look alike come from different tables or passages of the source.

Key:
[1] = Plasma nutrikinetics of unconjugated phenolic/aromatic acids after curry test meals (LC-MS/MS, non-compartmental); conditions: for AUC(0-t) / Cmax: male, human; for plasma concentration: all three doses
Description: The detailed methods for this Polyspice study have been described elsewhere. In brief, this was a three-way randomized, controlled, crossover, acute feeding trial in healthy Chinese males (age 23.7 ± 2.30 y, BMI 23.0 ± 2.31 kg/m^2). Three days prior to the main test day, each volunteer avoided vigorous physical activity and adopted a low polyphenol diet. To help adhere to a ‘low polyphenol diet’ in this run-in period, volunteers were provided with a list of polyphenol rich foods to avoid, which consisted of some fruits and fruit juices, spices and condiments, olive oil, certain vegetables, whole grain cereals, cocoa products, tea (including Green tea), coffee, red wine etc. […] On the main test day, the volunteers arrived at the study center in the morning after an overnight fasting period of a minimum of 10 h. On each of 3 test sessions, the volunteers consumed in random order 1 of 3 test meals: Dose 0 Control (D0C), Dose 1 Curry (D1C) and Dose 2 Curry (D2C). D0C, D1C, and D2C contained 0 g, 6 g, and 12 g mixed spices respectively. The mixed spices were prepared by thoroughly mixing dried powders of 7 different spices consisting of turmeric (Everest Spices, Mumbai, India), coriander seeds (Everest Spices, Mumbai, India), cumin seeds (Everest Spices, Mumbai, India), dried Indian gooseberry (‘amla’, Emblica officinalis, Ramdev Spices, Ahmedabad, India), cayenne pepper (Robertson’s, Durban, South Africa), cinnamon (McCormick’s, Baltimore, MD, USA), and clove (Robertson’s, South Africa) in the ratio of 8:4:4:4:2:1:1 respectively. The ‘base vegetables’ used in the curry recipes consisted of tomatoes, onions, ginger, and garlic in the ratio of 5:2:1:1, with D0C, D1C and D2C containing 0 g, 90 g, and 180 g base vegetables respectively. […] The 3 test meals were matched for total vegetable content by including 130 g peeled eggplant (Solanum melongena) and 50 g tomatoes to D0C and 90 g peeled eggplant to D1C. Plain white rice was consumed along with each test meal and the composition of all 3 test meals were isocaloric and macronutrients matched. A standardized lunch was served after the 3 h postprandial blood draw time point, consisting of a made-to-order chicken lasagna (TopChoice Food Industries (S) Pte Ltd., Singapore), which specifically excluded polyphenol-rich ingredients such as black pepper, herbs, spices, onion, garlic or ginger from the product’s original recipe. There was a minimum of 1-week washout period between each session.
The plasma sample was centrifuged at 1500 g for 10 min at 4 °C within 45 min of collection. Aliquots were stored at −80 °C until analysis.
The panel of phenolic/aromatic acids chosen for analyses were based on the predicted metabolic fate of polyphenols contained within the ingredients used in our test meals, as described above. […] Ultra-pure water from Adrona (Rīga, Latvija) was used. Unless otherwise stated, all chemicals and reagents were obtained from Sigma-Aldrich (St. Louis, MO, USA).
Stock solutions of 10 mM of each analyte were prepared in acetonitrile. Baseline (0 h) plasma was pooled from all participants and used as a matrix in equal volume for each calibration standard. […] All standard solutions were freshly prepared and kept in −20 °C prior to use.
Protein precipitation was undertaken using 400 μL acetonitrile containing 1 µM of BA-d5 internal standard was added to 100 μL of plasma, calibration, quality control or blank samples. The sample was centrifuged at 16,000 g for 15 min at 4 °C. 400 μL of the supernatant was recovered and evaporated under a nitrogen flow. Finally, extracts were reconstituted with 80 μL of 90% mobile phase A and 10% mobile phase B.

[2] = cited from earlier work
[3] = Compartmental nutrikinetic modeling of the CNA plasma concentration-time profile (one-compartment, first-order elimination); assay type: in vivo; conditions: male, human, oral; for AUC: read-out: AUC (one-compartment model); for Cmax: read-out: Cmax (one-compartment model); for k el: read-out: Ke, elimination rate constant (converted)
Description: Compartmental parameter estimates for CNA were determined after fitting of concentration data to several compartmental models on Phoenix WinNonlin (Table S3). The Gauss-Newton algorithm was applied and the final model selection was based on goodness-of-fit comparisons, examination of the residual plots, correlation of the observed and predicted values, and Akaike information criterion. 1/Y^2 model yielded the best fit amongst the various weighting schemes used (1/Y, 1/Y^2, and actual). The final nutrikinetic curve best fit into a one-compartment, first-order elimination, as described by:(1) C(T)=DKa/V (Ka−Ke) [e^−KeT−e^−KaT] where C is the plasma concentration, T is time, Ka is the first-order absorption rate, Ke is the first-order elimination rate constant, D is dose, and V is the apparent volume of distribution. Secondary parameters determined from the model included the Cmax, Tmax, AUC0–7 h as well as the terminal half-life.

[4] = set-up: method as in PMID 23604435; conditions: cited from earlier work
[5] = plasma, oral, 12 g mixed spices
[6] = 0 g mixed spices, D0C, Figure 2C
[7] = 6 g mixed spices, D1C, Figure 2C
[8] = 12 g mixed spices, D2C, Figure 2C

SMILES | AUC(0-t) ([1]; plasma, oral, 0 g mixed spices) | Cmax ([1]; plasma, oral, 0 g mixed spices) | AUC(0-t) ([1]; plasma, oral, 6 g mixed spices) | Cmax ([1]; plasma, oral, 6 g mixed spices) | AUC(0-t) [1, 5] | Cmax [1, 5] | other results
O=C(O)c1ccccc1 [Benzoic acid (BA), benzoic acid] | – | – | – | – | – | – | AUC(0-t) ([1]; in vivo, 0 g mixed spices): 0.348 ± 0.0868 µM·h; Cmax ([1]; in vivo, 0 g mixed spices): 114 ± 36.7 nM; AUC(0-t) ([1]; in vivo, 6 g mixed spices): 0.347 ± 0.107 µM·h; Cmax ([1]; in vivo, 6 g mixed spices): 113 ± 33.6 nM; AUC(0-t) ([1]; in vivo, 12 g mixed spices): 0.355 ± 0.123 µM·h; Cmax ([1]; in vivo, 12 g mixed spices): 109 ± 34.6 nM
O=C(O)c1cccc(O)c1 [3-Hydoxybenzoic acid (3OH-BA), 3-hydroxybenzoic acid] | – | – | – | – | – | – | plasma concentration [1]: below detection limits
O=C(O)CNC(=O)c1ccc(O)cc1 [4-Hydroxyhippuric acid (4OH-HA), 4-hydroxyhippuric acid] | – | – | – | – | – | – | plasma concentration [1]: below detection limits
O=C(O)/C=C/c1ccccc1 [Cinnamic acid (CNA), cinnamic acid] | 0.0084 ± 0.0034 µM·h | 2.4 ± 0.7 nM | 0.376 ± 0.105 µM·h | 164 ± 47.7 nM | 0.876 ± 0.292 µM·h | 342 ± 83 nM | time of plasma peak post consumption ([1]; D1C and D2C): approximately 1 h; time of secondary peak in plasma ([1]; D1C and D2C periods, Figure 2A): around 3 h; fraction eliminated via oxidation (β-oxidation) and subsequent glycine conjugation to form HA [2]: 63%; AUC [3, 6]: 0.0254 µM·h; Cmax [3, 6]: 2.73 nM; k el [3, 6]: 8.06e-05 s⁻¹; half-life ([3]; 0 g mixed spices, D0C, Figure 2C, read-out: T0.5, half-life (converted)): 142 min; Tmax ([3]; 0 g mixed spices, D0C, Figure 2C, read-out: Tmax (one-compartment model)): 205 min; AUC [3, 7]: 0.347 µM·h; Cmax [3, 7]: 144 nM; k el [3, 7]: 0.000297 s⁻¹; half-life ([3]; 6 g mixed spices, D1C, Figure 2C, read-out: T0.5, half-life (converted)): 39 min; Tmax ([3]; 6 g mixed spices, D1C, Figure 2C, read-out: Tmax (one-compartment model)): 56.4 min; AUC [3, 8]: 0.847 µM·h; Cmax [3, 8]: 323 nM; k el [3, 8]: 0.000289 s⁻¹; half-life ([3]; 12 g mixed spices, D2C, Figure 2C, read-out: T0.5, half-life (converted)): 40.2 min; Tmax ([3]; 12 g mixed spices, D2C, Figure 2C, read-out: Tmax (one-compartment model)): 58.2 min; half-life ([3]; no lag time, 1st order absorption, 1st order elimination, 1-compartment model, assumes elimination is rate-limiting, read-out: average elimination half-life (converted)): 39.6 min; Tmax ([3]; no lag time, 1st order absorption, 1st order elimination, 1-compartment model, read-out: Tmax (average, compartmental model)): 57.6 min
O=C(O)Cc1cccc(O)c1 [3-Hydroxyphenylacetic acid (3OH-PAA), 3-hydroxyphenylacetic acid] | 0.101 ± 0.112 µM·h | 28.1 ± 26.2 nM | 0.106 ± 0.07 µM·h | 27.2 ± 15.8 nM | 0.113 ± 0.0904 µM·h | 29.1 ± 20.5 nM | –
O=C(O)Cc1ccccc1 [Phenylacetic acid (PAA), phenylacetic acid] | – | – | – | – | – | – | AUC(0-t) ([1]; in vivo, 0 g mixed spices): 1.74 ± 1.24 µM·h; Cmax ([1]; in vivo, 0 g mixed spices): 433 ± 287 nM; AUC(0-t) ([1]; in vivo, 6 g mixed spices): 4.44 ± 2.97 µM·h; Cmax ([1]; in vivo, 6 g mixed spices): 1020 ± 826 nM; AUC(0-t) ([1]; in vivo, 12 g mixed spices): 4.13 ± 2.95 µM·h; Cmax ([1]; in vivo, 12 g mixed spices): 1000 ± 666 nM
O=C(O)CCc1ccccc1 [3-Phenylpropanoate acid (PPA), 3-phenylpropanoic acid] | 0.831 ± 0.784 µM·h | 279 ± 322 nM | 2.39 ± 4.37 µM·h | 731 ± 1220 nM | 1.86 ± 3.43 µM·h | 554 ± 985 nM | –
O=C(O)CNC(=O)c1cccc(O)c1 [3-Hydroxyhippuric acid (3OH-HA), 3-hydroxyhippuric acid] | 0.0707 ± 0.0616 µM·h | 26.3 ± 22.5 nM | 0.0801 ± 0.0683 µM·h | 27.4 ± 19.1 nM | 0.0884 ± 0.0854 µM·h | 31.3 ± 26.5 nM | –
O=C(O)CCc1cccc(O)c1 [3-(3-hydroxyphenyl)-propanoic acid] | 0.182 ± 0.126 µM·h | 58.9 ± 39.1 nM | 0.283 ± 0.388 µM·h | 83.3 ± 79.5 nM | 0.226 ± 0.177 µM·h | 72.5 ± 48.6 nM | –
O=C(O)Cc1ccc(O)cc1 [4-Hydroxyphenylacetic acid (4OH-PAA), 4-hydroxyphenylacetic acid] | 2.07 ± 1.45 µM·h | 566 ± 322 nM | 2.38 ± 1.07 µM·h | 667 ± 305 nM | 2.17 ± 1.07 µM·h | 633 ± 285 nM | –
O=C(O)CNC(=O)c1ccccc1 [Hippuric acid (HA), hippuric acid] | 1.83 ± 1.42 µM·h | 1290 ± 706 nM | 3.22 ± 3.1 µM·h | 1370 ± 1170 nM | 3.06 ± 1.8 µM·h | 1080 ± 616 nM | maximum concentration in plasma ([1]; most abundant phenolic acid in plasma, Table 1): above 1200 nM; half-life [4]: 1320 min
O=C(O)c1ccc(O)cc1 [4-Hydroxybenzoic acid (4OH-BA), 4-hydroxybenzoic acid] | 0.036 ± 0.0233 µM·h | 13.7 ± 9.9 nM | 0.0542 ± 0.0346 µM·h | 18.3 ± 12.4 nM | 0.114 ± 0.207 µM·h | 41.5 ± 101 nM | –
O=C(O)CCc1ccc(O)cc1 [3-(4-hydroxyphenyl)-propanoic acid] | 0.126 ± 0.115 µM·h | 31.4 ± 25 nM | 0.178 ± 0.12 µM·h | 48.6 ± 36.6 nM | 0.261 ± 0.132 µM·h | 81.7 ± 102 nM | –
